Consider 5 compounds from US8927520B2, “Antibacterial compounds” (Institut Pasteur, priority 2010, dated 2015).

Experiment [1] deals with LmNADK1 (NADK from Lysteria monocytogenes) (Listeria monocytogenes serovar 1/2a (strain ATCC BAA-679 / EGD-e), UniProt Q8Y8D7). Briefly: NAD kinase activity assay (coupled Glucose-6-phosphate dehydrogenase, absorbance at 340 nm). It is filed as biochemical. Particulars: for Ki: Dixon plots, 4 mM ATP, NAD 0.2, 0.5 and 1 mM, read-out: Ki, NADK from Lm; for Inhibition of LmNADK1 (in words): purified enzyme. The procedure:
(§1) Expression, purification and activity assay. His-tagged LmNADK1 wild-type and His-tagged SaNADK were expressed and purified on cobalt-based IMAC resins (Clontech) as previously published^13. The NAD kinase activity was determined by measuring the absorbance at 340 nm to follow the formation of reduced NADP produced by a coupling enzyme (Glucose-6-phosphate dehydrogenase from yeast). Coupling enzyme and its substrate were purchased from Sigma-Aldrich. The assay was performed in a 0.5 mL sample of (50 mM Tris-HCl pH 7.4, 10 mM MgCl2, 1 mM Glucose-6-phosphate, 2 mM sodium citrate) containing Glucose-6-phosphate dehydrogenase and NADK at 30° C. using a spectrophotometer Eppendorf ECOM 6122.
(§2) For inhibitor assays, IC50 was determined, in the presence of 1 mM NAD and 4 mM ATP (for LmNADK1) or 2 mM ATP (for SaNADK). Dixon plots were used to determine KI in the presence of 4 mM ATP (for LmNADK11) or 2 mM ATP (for Sa NADK) and three NAD concentrations (0.2, 0.5 and 1 mM). It was also checked that the inhibitors had no effect on the coupling enzyme activity.

Experiment [2] deals with SaNADK (NADK from Staphylococcus aureus) (Staphylococcus aureus (strain COL), UniProt Q5HH78). Described as above. It is filed as biochemical. The conditions noted are these: Dixon plots; 2 mM ATP; NAD 0.2, 0.5 and 1 mM; read-out: Ki, NADK from Sa. The procedure:
as §1, §2

Experiment [3] has as its system Staphylococcus aureus S25 strain. The experiment is described as follows: Bactericidal activity assay. The conditions noted are these: S. aureus, overnight at 37° C., inhibitor 1 to 100 μg/mL, CFU count. It is filed as cell-based. The procedure:
100 μL suspensions of S. aureus corresponding to 2.10^3 bacteria were incubated overnight at 37° C. with increasing concentrations of inhibitor (1 to 100 μg/mL). Bacterial killing (percent) was determined as the ratio of colony forming units after incubation with inhibitor to that of colony forming units after incubation with buffer alone. Data are mean values ±SD from three separate experiments. * indicates a statistical significance in Student's t-test of p<0.05.
The Staphylococcus aureus S25 strain, a human clinical isolate, was grown overnight in brain heart infusion (BHI) broth at 200 rpm and 37° C. Overnight cultures were diluted to OD600nm=0.05 in BHI-phosphate buffer saline (25% v/v). Bacteria were grown at 200 rpm and 37° C. until cultures reached OD600nm=0.5. Bacterial suspensions were adjusted to a concentration of 2.10^5 bacteriamL. In a microtiter plate, 2.10^3 bacteria were incubated overnight at 200 rpm and 37° C. with increasing concentrations of NADK inhibitor in 0.1 mL BHI-phosphate buffer saline (25% v/v) per well. To quantify the bactericidal activity, each bacterial suspension was serially diluted in BHI and plated on BHI agar plates in duplicates. Plates were incubated at 37° C. for 24 h to 48 h and the number of colony forming units was determined.

Experiment [4] addresses NADK from Listeria monocytogenes (Listeria monocytogenes serovar 1/2a (strain ATCC BAA-679 / EGD-e), UniProt Q8Y8D7). The conditions noted are these: literature value; read-out: K (affinity), inhibition of NADK; cited from earlier work.
Experiment [5] deals with Staphylococcus aureus S25 strain. The conditions noted are these: reference value for comparison; cited from earlier work.

For the compound “8-[3-(Adenosin-5′-yl)methoxyprop-1-yn-1-yl]adenosine [Inhibitor 22]”, in experiment [1], the Ki is 20 µM and the “Inhibition of LmNADK1 (in words)” value is “micromolar range”. The Ki in experiment [2] worked out at 15 µM. In addition, the “Concentration giving significant bactericidal activity” value in experiment [3] is 1 µg/mL.
Di-5′-thioadenosine [DTA]: the Ki in experiment [4] was around 20 µM.
With “5′-Amino-5′-deoxyadenosin-8-yl-thio-N-[(5′-amino-5′-deoxy-adenosine)methyl]acetamide [Inhibitor 17]”, in experiment [1], the Ki was found to be 30 µM and the “Inhibition of LmNADK1 (in words)” value is listed as “micromolar range”. In addition, the Ki in experiment [2] came out at 50 µM. Further, the “Concentration giving significant bactericidal activity” value in experiment [3] is 1 µg/mL.
`CN[C@H](CC(C)C)C(=O)N[C@H]1C(=O)N[C@@H](CC(N)=O)C(=O)N[C@H]2C(=O)N[C@H]3C(=O)N[C@H](C(=O)N[C@H](C(=O)O)c4cc(O)cc(O)c4-c4cc3ccc4O)[C@H](O)c3ccc(c(Cl)c3)Oc3cc2cc(c3O[C@@H]2O[C@H](CO)[C@@H](O)[C@H](O)[C@H]2O[C@H]2C[C@](C)(N)[C@H](O)[C@H](C)O2)Oc2ccc(cc2Cl)[C@H]1O` [vancomycin]: the “Efficiency of reference compound (bactericidal concentration)” value in experiment [5] was 8 µg/mL.
As for `Nc1ncnc2c1ncn2[C@@H]1O[C@H](CNCC#Cc2nc3c(N)ncnc3n2[C@@H]2O[C@H](CO)[C@@H](O)[C@H]2O)[C@@H](O)[C@H]1O` [Inhibitor 19, 8-[3-N-(5′-Deoxyadenosin-5′-yl)aminoprop-1-yn-1-yl]adenosine], the Ki in experiment [1] came out at 10 µM; in experiment [2] it was 5 µM. In experiment [1], the “Inhibition of LmNADK1 (in words)” value is recorded as “micromolar range”. The “Concentration giving significant bactericidal activity” value in experiment [3] was found to be 10 µg/mL.
